Measured values reported in patent publication US6949516B2, “Dipeptide apoptosis inhibitors and the use thereof” (Cytovia, Inc., priority 1997, dated 2005).

Key:
[1] = test system: HeLa cells; test: Cell death assay with HeLa cells, quantitative (calcein AM), TNF-α/CHX challenge; assay type: cell-based
Procedure: The cytoprotective properties of Cbz-Val-Asp(OMe)CH2F were tested using HeLa cells challenged with tumor necrosis factor-alpha (TNF-α) and cycloheximide (CHX). This is a well-characterized cell culture model of apoptosis which is commonly used to analyze anti-apoptotic agents. Two types of experiments were performed: a qualitative assessment of cell death by visualization of the cells using phase contrast microscopy; and a quantitative assessment of cell death using the fluorescent dye calcein AM.
For quantitative assays, the degree of cell survival in the presence of test compounds is analyzed quantitatively using the indicator dye calcein AM. This dye is taken up and converted to a fluorescent derivative by living cells; the amount of activated dye in each well can then be assayed in a fluorometric plate reader and the degree of fluorescence is used as a measure of the number of surviving cells. For these assays, HeLa cells are seeded in 48-well plates at a density of 25,000 cells per well in 0.4 mL of Minimal Essential Medium containing 2 mM glutamine and 10% fetal bovine serum. 24 hours later the plating medium is removed and 0.5 mL of fresh medium containing test compound at various concentrations is added. The cells are pre-incubated with test compound for 2 hours at 37° C. in a CO2 incubator and then TNF-α and CHX are added at final concentrations of 25 ng/mL and 30 μg/mL, respectively. After a 24 hour incubation period, the cultures are washed twice with serum-free, phenol red-free Ham's F12 to remove dead cells and 125 μL of Ham's F12 containing 8 μM calcein AM is added. […] The data are expressed as “Percent Control,” which is calculated by the following equation: Percent Control=(Calcein AM Signal in the Presence of Test Compound+TNF-α and CHX/(Calcein AM Signal in the Presence of CHX Only)×100% The use of CHX-treated cultures as controls, rather than untreated cultures, allows one to correct for the cytostatic effects of CHX. However, because CHX by itself is also a mild inducer of apoptosis in HeLa cells, strong anti-apoptotic drugs will give a Percent Control value greater than 100%.
Quantitative experiments using calcein AM, as described above, corroborate the results obtained by microscopic examination. FIGS. 4 and 5 illustrate the results of two such experiments where the cytoprotective properties of Cbz-Val-Asp(OMe)-CH2F (a) were compared to BOC-Asp(OMe)-CH2F (b) (FIG. 5) and Cbz-Asp(OMe)-Glu(OMe)-Val-Asp(OMe)-CH2F (SEQ ID NO:1) (c) (FIG. 4) at three concentrations (0.5, 5 and 50 μM). […] By contrast, Cbz-Val-Asp(OMe)-CH2F (a) is as effective a cytoprotectant at 0.5 μM as Cbz-Asp(OMe)-Glu(OMe)-Val-Asp(OMe)-CH2F (SEQ ID NO:1) […] is at 50 μM (FIG. 4).
In order to determine the effect of Cbz-Val-Asp(OMe)-CH2F at low doses, HeLa cells were treated with a range of concentrations from 0.05 μM to 1 μM.

[2] = test system: DNA laddering in Jurkat cells; test: DNA laddering in antiFas-treated Jurkat cells; assay type: cell-based, human; conditions: antiFas 100 ng/mL for 4 hours
Description: In the later stages of apoptosis, cells begin to literally fall apart as pieces of the cytoplasm are shed (through blebbing) and the nucleus is disassembled. One of the hallmarks of nuclear disassembly is the cleavage of genomic DNA into nucleosome-sized fragments (termed “DNA laddering”). DNA laddering, like other late stage apoptotic events, is considered to be irreversible, so it is important to determine whether an anti-apoptotic drug can prevent its occurrence.
The ability of Z-VD-fmk to block DNA laddering was tested using antiFas-treated Jurkat cells. Jurkat cells were plated in 60 mm dishes at a density of 5×10^6 cells and pre-incubated with varying concentrations of Z-VD-fmk. They were then challenged with antiFas at 100 ng/mL for 4 hours, harvested, and pelleted and washed with PBS twice. Genomic DNA was isolated using the method of Eldadah et al. (1996). Briefly, the cells were lysed in 2 mL of 7M guanidine HCl and mixed with 1 mL of Wizard miniprep DNA purification resin (Promega). The resin/DNA complex was washed twice with buffer and the DNA was eluted in TE. 1 to 2 μg of this DNA sample was electrophoresed on a 1% agarose/TBE gel and the gel was stained with ethidium bromide.
Vehicle treated cells which were challenged with antiFas show a characteristic laddering pattern of DNA extending down to about 300 bp. […]

[3] = molecular target: T1, Caspase-3 (Homo sapiens, UniProt P42574); test: Recombinant caspase assay with Ac-DEVD-AMC, caspase-3; assay type: biochemical; conditions: 10 μM Ac-DEVD-AMC, 30 minutes at 37° C.
T1 sequence (P42574 29-175 limits assumed): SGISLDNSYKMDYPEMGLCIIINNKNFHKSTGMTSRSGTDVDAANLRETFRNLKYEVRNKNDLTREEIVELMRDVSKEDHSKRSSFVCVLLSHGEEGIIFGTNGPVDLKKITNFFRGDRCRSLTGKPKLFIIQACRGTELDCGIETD
Procedure: The inhibitory activity of Cbz-Val-Asp-CH2F in recombinant caspase 3, 6, 7 and 8 obtained from PharMington (a Becton division company, San Diego, Calif.) were measured using Ac-DEVD-AMC (SEQ ID NO:1). The amount of each enzyme per assay was as following: 1 ng caspase3, 15 ng caspase6, 2 ng caspase7 and 60 ng caspase8. The enzyme reaction was conducted in 96-well plate using a caspase buffer (20 mM PIPES, 100 mM NaCl, 10 mM DTT, 1 mM EDTA, 0.1% CHAPS and 10% sucrose, pH 7.2) and the reaction was initiated by adding 10 μM Ac-DEVD-AMC (SEQ ID NO:1) (purchased from Quality Controlled Biochemicals, Inc. Hopkinton, Mass.). Twelve concentrations of Cbz-Val-Asp-CH2F ranged from 30 μM to […] were tested after incubation of the compound with recombinant caspases for 30 minutes at 37° C. […] The data was analyzed using GraphPrism software.

COC(=O)CC(NC(=O)C(NC(=O)OCc1ccccc1)C(C)C)C(=O)CF (stereo not drawn) [Cbz-Val-Asp(OMe)-CH2F, Z-Val-Asp-fmk Methyl Ester]
protection of HeLa cells from TNF-α/CHX (calcein AM) ([1]; 0.5 μM): highly active
concentration giving significant protection of HeLa cells from TNF-α/CHX ([1]; range 0.05 μM to 1 μM tested): ≤ 0.25 µM

CC(C)[C@H](NC(=O)OCc1ccccc1)C(=O)NC(CC(=O)O)C(=O)CF (stereo partly drawn) [Cbz-Val-Asp-CH2F, Z-Val-Asp-fmk]
dose inhibiting DNA ladder formation [2]: ≤ 50 nM
IC50 [3]: 19.8 nM
